In US20040019092A1, “Non-peptide somatostatin receptor ligands” (priority 2001, published 2004):
Several values for one entry are separate records, joined by “and”; a condition that tells them apart may be missing. Equal entries are not always repeated.

What was measured:
[1] = target: T1, SSTR3 (Homo sapiens, UniProt P32745); assay: Binding SSTR3; details: > = extrapolated value; read-out: Bind SSTR3
T1 construct: host or cells: SRIF receptor expressing cell cultures (general statement only)

[2] = system: GH secretion; assay: GH secretion in vivo, rat, subcutaneous application, 1 h (basal); details: rat, basal GH secretion, 1 h after subcutaneous application
Protocol: (§1) Animals, anesthesia: Male rats of a Sprague Dawley strain (Ico:OFA-SD, Iffa-Credo, F-Lyon) of 200-300 g body weight were used. They were kept under standardized conditions and were anesthetized with pentobarbital-sodium (Siegfried, CH Zofingen), 60 mg/kg i.p. for subcutaneous and intraduodenal applications. Animals designed for an infusion experiment were anesthetized with urethane (Siegfried, CH Zofingen), 1.2 g/kg i.p.
(§2) Compounds: The compounds were dissolved, optionally with the aid of one or more of the following adjuncts:
(§3) Stock solutions of the compounds were prepared in water with the addition of the necessary adjunct(s). Further dilutions were prepared allowing 5 mL/kg for subcutaneous application, 2 mL for intraduodenal (i.d.) application or 4.5 mL/kg for intravenous infusion. The solutions for the intravenous application/infusion were made isotonic by addition of glucose to a final concentration of 5%.
(§4) Applications were made, or, in the case of infusion, started, approximately 10 minutes after induction of anesthesia. No further treatment followed subcutaneous or intraduodenal application. Ten, twenty-five and fifty-five minutes after start of the intravenous infusion the GH secretion was stimulated with repeated intravenous injections of the potent GHRH analog, D-Ala2 GHRH1-29NH2, 1 μg/kg.
(§5) One hour after subcutaneous or intraduodenal application of the compounds, blood was collected from the trunk after decapitation. In the case of application by infusion, 5 minutes after each application of GHRH, a blood sample of 0.8 mL was taken from a V. jugularis and mixed with EDTA (Eppendorf tubes TOM14, Milian, CH Geneva). The blood samples were kept on ice and spun in a cooled centrifuge. The serum or plasma was separated and frozen.
(§6) Statistics: In each experiment, 4-5 animals were used per dose, with 6 to 8 animals as the control group that received the vehicle. The GH serum/plasma levels were averaged, the mean of the treated groups expressed in percent of the control group and the ID50-value for the inhibition of the secretion was determined graphically (log-probit) for each experiment. In most experiments with enteral (intraduodenal) application only 1 dose, 10 mg/kg, was given. […] Only inhibitions between 20 and 80% were considered reliable.
(§7) Two to four experiments were performed. In the case of proper dose response curves, allowing the determination of an ID50 values were averaged logarithmically. In the cases of single dose-experiments, the GH value in percent of control were averaged logarithmically and the ID50 for this value was taken from the table. ID50 values determined at the different time points during the infusion were averaged and this value was included in the tables.

[3] = system: GHRH stimulated GH secretion; assay: GH secretion in vivo, rat, intravenous infusion with repeated GHRH stimulation
Protocol: as §1, §3, §4, §5, §6, §7

[4] = system: GH secretion; assay: GH secretion in vivo, rat, intraduodenal (enteral) application, 1 h (basal); details: basal GH secretion, 1 h after intraduodenal application, mostly approximate ID50 from single 10 mg/kg dose, Ø = no effect at this dose, > = extrapolated value, 10 mg/kg
Protocol: as §1, §2, §3, §4, §5, §6, §7

[5] = system: basal plasma levels of growth hormone, glucagon, insulin and glucose; assay: Endocrine parameters in the Rhesus monkey after subcutaneous administration; type: in vivo
Protocol: Therefore, they were further investigated in the Rhesus monkey and their activity profile was determined. Using subcutaneous administration, they were characterized in this species, by measuring their effects on the basal plasma levels of growth hormone, glucagon, insulin as well changes in glucose levels.
Animals and blood sampling: Rhesus monkeys, fed on the previous day in the morning with fruits only, were placed, slightly anesthetized with ketamin (Ketalar©, Parke-Davis), in primate chairs and brought to the experimental room. A catheter, consisting of an in-dwelling cannula (Vasocan Braunüle, 20G, B. Braun Melsungen AG, D-Melsungen), an extension line made from PP 800/110/260/100 Portex© tubing and a special adapter between cannula and tubing with a minimal void volume, was placed in a saphenic vein. The total volume of this catheter was approximately 0.7 mL. The distal end was placed through a hole in the wall to the adjacent room in order to allow infusion and blood sampling without being noticed by the animal. The animals were monitored with a video system.
During the entire duration of the experiment an infusion of 5 to 10 mL/h of isotonic saline (NaCl 0.9% Braun, B. Braun Medical AG, CH-Emmenbrücke) containing heparin sodium 80 mg/L (Biochemie GMBH, A-Kundl) was maintained, using a roller pump (Vario-Perpex, Guldener, CH-Zürich). At each sampling time 1.5 mL (twice the void volume of the catheter) was taken in one syringe before collecting the actual blood sample of 2 mL in another syringe. The first 1.5 mL were reinfused immediately after the actual sample had been taken. The sample was mixed with 0.1 mL of a mixture containing EDTA (ethlenediaminetetraacetic acid tetrasodium Fluka, CH-Buchs) and aprotinin (Trasylol©, Bayer) resulting in final concentrations of 1.8 mg/mL and 1000 KIE/mL, respectively. The blood samples were kept on ice and spun in a cooled centrifuge. […]
Determinations: The blood levels of the hormones were determined by radioimmunoassay (RIA) using the appropriate antisera, antibodies, labels and standards, glucose by an enzymatic assay: […]

[6] = target: T2, SSTR1 (Homo sapiens, UniProt P30872); assay: Binding SSTR1; details: > = extrapolated value; read-out: Bind SSTR1
T2 construct: host or cells: SRIF receptor expressing cell cultures (general statement only)

[7] = target: SS1 (Rattus norvegicus, UniProt P30680); assay: SS-1 binding (Bind SS1 D.H.)
[8] = target: T3, SSTR5 (Homo sapiens, UniProt P35346); assay: Binding SSTR5; details: read-out: Bind SSTR5
T3 construct: host or cells: SRIF receptor expressing cell cultures (general statement only)

[9] = target: T4, SSTR4 (Homo sapiens, UniProt P31391); assay: Binding SSTR4; details: > = extrapolated value; read-out: Bind SSTR4
T4 construct: host or cells: SRIF receptor expressing cell cultures (general statement only)

[10] = target: T5, human sst2 receptor sub-type (Homo sapiens, UniProt P30874); assay: In vitro binding, human sst2 receptor sub-type (SSTR2); details: Tables 8/9: Bind SSTR2 nM
T5 construct: host or cells: SRIF receptor expressing cell cultures (general statement only)
Protocol: The in vitro binding affinities for rat cortex SRIF receptors and the human sst2 receptor sub-type was assessed. Further the in vitro inhibition of the GHRH induced GH secretion in primary cultures of rat pituitary cells as well as the in vivo inhibition of GH secretion in the rat after systemic or enteral application was studied. […] Therefore, the in vivo activities of the compounds in rats with respect to inhibition of growth hormone release was also assessed. Most compounds selected were tested by enteral—intraduodenal (i.d.) application. For determination of the absolute activity and for the calculation of an enteral bioavailability, single subcutaneous (s.c.) application of intravenous (i.v.) infusion was used.

Sequence of SS1 (P30680 whole entry): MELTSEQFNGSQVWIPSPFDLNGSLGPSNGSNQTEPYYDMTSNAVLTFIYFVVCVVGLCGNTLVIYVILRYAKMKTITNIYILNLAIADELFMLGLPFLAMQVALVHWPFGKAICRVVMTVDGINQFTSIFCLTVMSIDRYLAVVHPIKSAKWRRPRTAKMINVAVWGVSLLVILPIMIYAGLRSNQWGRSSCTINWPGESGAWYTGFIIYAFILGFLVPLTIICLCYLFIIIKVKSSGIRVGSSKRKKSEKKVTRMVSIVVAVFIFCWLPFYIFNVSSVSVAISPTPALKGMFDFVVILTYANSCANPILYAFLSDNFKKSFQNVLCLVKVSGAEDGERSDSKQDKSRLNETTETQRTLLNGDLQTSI
T3 sequence (P35346 whole entry, species assumed): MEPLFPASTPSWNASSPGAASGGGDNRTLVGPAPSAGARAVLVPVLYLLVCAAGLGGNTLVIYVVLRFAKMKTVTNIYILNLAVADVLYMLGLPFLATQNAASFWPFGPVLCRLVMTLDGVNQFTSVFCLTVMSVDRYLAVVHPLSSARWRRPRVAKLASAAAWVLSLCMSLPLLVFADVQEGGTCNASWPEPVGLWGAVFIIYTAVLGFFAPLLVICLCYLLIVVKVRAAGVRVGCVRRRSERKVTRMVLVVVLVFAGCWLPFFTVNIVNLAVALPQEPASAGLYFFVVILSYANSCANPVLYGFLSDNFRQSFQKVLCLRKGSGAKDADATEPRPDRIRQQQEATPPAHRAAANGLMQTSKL
T5 sequence (P30874 whole entry): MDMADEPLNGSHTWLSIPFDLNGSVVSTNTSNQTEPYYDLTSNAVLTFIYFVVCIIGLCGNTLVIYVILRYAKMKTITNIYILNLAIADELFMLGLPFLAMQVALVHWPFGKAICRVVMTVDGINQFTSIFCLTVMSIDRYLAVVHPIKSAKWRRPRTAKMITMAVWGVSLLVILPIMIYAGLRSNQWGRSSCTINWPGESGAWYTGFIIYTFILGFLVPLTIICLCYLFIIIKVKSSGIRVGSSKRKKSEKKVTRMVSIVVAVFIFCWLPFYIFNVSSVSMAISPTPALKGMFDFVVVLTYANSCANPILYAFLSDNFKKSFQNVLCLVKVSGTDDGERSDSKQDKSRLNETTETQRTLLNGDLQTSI
T1 sequence (P32745 whole entry, species assumed): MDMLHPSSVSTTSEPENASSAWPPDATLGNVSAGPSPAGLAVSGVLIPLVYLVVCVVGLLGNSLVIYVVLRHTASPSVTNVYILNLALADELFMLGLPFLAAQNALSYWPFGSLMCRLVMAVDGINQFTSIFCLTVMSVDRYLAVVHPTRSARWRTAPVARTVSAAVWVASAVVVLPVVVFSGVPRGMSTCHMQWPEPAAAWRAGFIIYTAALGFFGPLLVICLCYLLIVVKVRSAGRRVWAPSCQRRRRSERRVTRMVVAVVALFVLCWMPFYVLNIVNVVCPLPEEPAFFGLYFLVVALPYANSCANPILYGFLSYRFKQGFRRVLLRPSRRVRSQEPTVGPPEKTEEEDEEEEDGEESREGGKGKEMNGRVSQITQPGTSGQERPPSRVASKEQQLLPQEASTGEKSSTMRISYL
T4 sequence (P31391 whole entry, species assumed): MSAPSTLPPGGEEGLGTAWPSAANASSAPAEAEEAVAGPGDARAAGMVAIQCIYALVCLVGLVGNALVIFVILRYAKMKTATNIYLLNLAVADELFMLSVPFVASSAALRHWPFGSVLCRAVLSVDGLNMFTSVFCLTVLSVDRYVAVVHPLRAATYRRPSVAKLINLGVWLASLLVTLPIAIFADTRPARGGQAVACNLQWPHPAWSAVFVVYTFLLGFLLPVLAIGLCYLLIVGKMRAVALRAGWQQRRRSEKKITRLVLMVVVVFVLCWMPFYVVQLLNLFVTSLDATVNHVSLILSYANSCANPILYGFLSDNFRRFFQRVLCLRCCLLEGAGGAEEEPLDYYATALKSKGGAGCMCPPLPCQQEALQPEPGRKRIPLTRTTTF
T2 sequence (P30872 whole entry, species assumed): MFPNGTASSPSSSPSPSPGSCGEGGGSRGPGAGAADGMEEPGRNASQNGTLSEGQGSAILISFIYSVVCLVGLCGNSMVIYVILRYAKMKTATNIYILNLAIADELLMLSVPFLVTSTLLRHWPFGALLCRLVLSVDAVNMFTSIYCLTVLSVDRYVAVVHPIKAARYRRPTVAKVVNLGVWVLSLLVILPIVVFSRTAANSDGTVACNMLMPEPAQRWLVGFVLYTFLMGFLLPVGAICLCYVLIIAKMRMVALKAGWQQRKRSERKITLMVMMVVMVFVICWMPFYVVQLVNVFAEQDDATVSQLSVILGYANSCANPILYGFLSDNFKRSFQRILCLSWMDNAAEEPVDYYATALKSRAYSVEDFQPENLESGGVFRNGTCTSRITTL

IC50 [1]: 450 nM | IC50 [6]: > 1000 nM | Bind SS1 D.H. [7]: 0.63 nM | IC50 [8]: 90 nM | IC50 [9]: > 1000 nM | IC50 [10]: 0.43 nM
Compound: Cc1cccc2c(CC3C(=O)N(CCCCCN)C(=O)N3S(=O)(=O)c3ccc(Oc4ccc(O)cc4)c(C(=O)N(C)C)c3)c[nH]c12 (stereo not drawn) [Compound 46]
GH vivo s.c. 1 h ID50 [2]: 7.4 µg/kg and 7 µg/kg | GH vivo s.c. 1 h ID50 ([2]; listed as 46 b): ˜7.40 μg/kg | INFUS. + GHRH ID50 MEAN ([3]; Table 4, mean of infusion time points): 7.89 µg/kg | INFUS. + GHRH ID50 15′ ([3]; Table 4, urethan, 15′ of infusion): 9.38 µg/kg | INFUS. + GHRH ID50 30′ ([3]; Table 4, urethan, 30′ of infusion): 8.14 µg/kg | INFUS. + GHRH ID50 60′ ([3]; Table 4, urethan, 60′ of infusion): 6.43 µg/kg | GH, Ur Inf15′ +GHRH ([3]; Tables 8/9, urethane, 15′ of infusion): 9.400 µg/kg/h | GH, UR Inf30′ +GHRH ([3]; Tables 8/9, urethane, 30′ of infusion): 8.100 µg/kg/h | GH, UR Inf60′ +GHRH ([3]; Tables 8/9, urethane, 60′ of infusion): 6.400 µg/kg/h | GH vivo Inf + GHRH ID50 (mean of time points) ([3]; urethane, i.v. infusion, GHRH stimulated, listed as 46 b): 7.89 µg/kg/h and 7.900 µg/kg/h | GH vivo i.d. 1 h ID50 [4]: 19000 µg/kg | dose levels necessary for inhibition of hormone release, times higher than Octreotride [5]: about 100 times
